The text below walks through data of publication PMC3246389 (Nature biotechnology, 2011).

Experiment [1] has as its target GABAB receptor (Homo sapiens, UniProt Q9UBS5). The class given is binding, rat and human. The following applies: control ligand tested at the highest concentration.
For experiment [2] the following is noted: read-out: Kd, literature value; SPR on immobilized GM1; cited from earlier work.

pKd: −log10 of the molar value.

Chain of GABAB receptor (Q9UBS5 1-844 isoform Q9UBS5-2): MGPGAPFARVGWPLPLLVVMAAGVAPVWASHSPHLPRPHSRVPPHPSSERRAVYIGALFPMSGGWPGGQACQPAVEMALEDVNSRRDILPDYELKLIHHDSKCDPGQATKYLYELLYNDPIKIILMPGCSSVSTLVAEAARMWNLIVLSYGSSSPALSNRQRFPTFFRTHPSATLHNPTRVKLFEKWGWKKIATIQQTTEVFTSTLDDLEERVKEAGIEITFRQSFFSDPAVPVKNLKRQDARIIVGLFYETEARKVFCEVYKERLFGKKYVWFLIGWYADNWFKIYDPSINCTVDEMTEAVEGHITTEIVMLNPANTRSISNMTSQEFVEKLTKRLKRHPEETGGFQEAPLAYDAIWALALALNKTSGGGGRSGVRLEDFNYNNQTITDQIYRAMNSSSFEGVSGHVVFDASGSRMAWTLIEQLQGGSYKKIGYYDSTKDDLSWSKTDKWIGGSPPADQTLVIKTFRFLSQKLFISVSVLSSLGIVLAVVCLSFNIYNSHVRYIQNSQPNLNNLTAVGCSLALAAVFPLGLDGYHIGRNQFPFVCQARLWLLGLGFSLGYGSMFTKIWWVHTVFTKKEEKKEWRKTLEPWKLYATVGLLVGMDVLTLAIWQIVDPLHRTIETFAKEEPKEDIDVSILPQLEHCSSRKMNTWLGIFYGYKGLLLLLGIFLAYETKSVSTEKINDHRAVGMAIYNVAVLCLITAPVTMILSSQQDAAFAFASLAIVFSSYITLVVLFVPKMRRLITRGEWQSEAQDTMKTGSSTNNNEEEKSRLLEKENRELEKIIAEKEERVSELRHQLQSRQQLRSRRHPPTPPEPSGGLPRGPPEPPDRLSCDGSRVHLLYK
Chain of GABAB receptor (O88871 41-940 partner): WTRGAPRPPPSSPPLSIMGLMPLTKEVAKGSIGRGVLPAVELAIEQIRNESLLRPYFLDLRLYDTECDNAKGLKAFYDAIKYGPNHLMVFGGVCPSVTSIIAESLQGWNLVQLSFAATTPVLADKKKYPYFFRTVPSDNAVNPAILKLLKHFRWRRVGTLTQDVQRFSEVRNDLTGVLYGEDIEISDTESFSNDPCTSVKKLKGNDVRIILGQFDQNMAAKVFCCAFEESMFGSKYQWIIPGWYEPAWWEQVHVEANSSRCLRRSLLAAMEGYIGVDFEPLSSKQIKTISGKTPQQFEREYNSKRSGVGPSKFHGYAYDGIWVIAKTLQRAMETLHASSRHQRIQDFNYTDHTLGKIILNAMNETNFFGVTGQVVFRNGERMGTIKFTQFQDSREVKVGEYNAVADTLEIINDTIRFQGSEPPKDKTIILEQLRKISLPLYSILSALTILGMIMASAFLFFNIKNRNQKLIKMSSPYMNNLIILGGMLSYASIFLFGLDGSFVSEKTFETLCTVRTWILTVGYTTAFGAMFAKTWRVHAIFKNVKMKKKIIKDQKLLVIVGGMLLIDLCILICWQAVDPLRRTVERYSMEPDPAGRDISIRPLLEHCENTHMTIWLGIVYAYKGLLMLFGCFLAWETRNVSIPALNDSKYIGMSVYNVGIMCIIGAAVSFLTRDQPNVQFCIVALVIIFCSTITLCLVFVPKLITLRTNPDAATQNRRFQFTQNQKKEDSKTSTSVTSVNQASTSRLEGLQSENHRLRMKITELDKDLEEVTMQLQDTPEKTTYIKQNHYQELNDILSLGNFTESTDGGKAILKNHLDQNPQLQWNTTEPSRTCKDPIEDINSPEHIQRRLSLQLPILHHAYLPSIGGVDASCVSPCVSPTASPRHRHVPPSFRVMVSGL

Regarding `C[C@H](N)C(=O)O` [L-alanine], the “BSI binding curve (negative control)” value in experiment [1] was “negative control”.
Still for that read-out and setting: the result for `CC(C)CCC[C@@H](C)[C@H]1CC[C@H]2[C@@H]3CC=C4C[C@@H](O)CC[C@]4(C)[C@H]3CC[C@]12C` [cholesterol] reads “negative control”.
As to “Cholera toxin B subunit: cholera toxin B subunit, soluble protein that binds GM1; purchased from Sigma”, in experiment [2], the pKd (commonly the Kd on a negative log10 scale, so that one unit is a factor of ten) is 11.40.
